The target of the test is T1, recombinant ERO1α (Homo sapiens, UniProt Q96HE7, C104A/C131A/C166A).
T1 construct: made in house
T1 sequence (Q96HE7 22-468 C104A/C131A/C166A): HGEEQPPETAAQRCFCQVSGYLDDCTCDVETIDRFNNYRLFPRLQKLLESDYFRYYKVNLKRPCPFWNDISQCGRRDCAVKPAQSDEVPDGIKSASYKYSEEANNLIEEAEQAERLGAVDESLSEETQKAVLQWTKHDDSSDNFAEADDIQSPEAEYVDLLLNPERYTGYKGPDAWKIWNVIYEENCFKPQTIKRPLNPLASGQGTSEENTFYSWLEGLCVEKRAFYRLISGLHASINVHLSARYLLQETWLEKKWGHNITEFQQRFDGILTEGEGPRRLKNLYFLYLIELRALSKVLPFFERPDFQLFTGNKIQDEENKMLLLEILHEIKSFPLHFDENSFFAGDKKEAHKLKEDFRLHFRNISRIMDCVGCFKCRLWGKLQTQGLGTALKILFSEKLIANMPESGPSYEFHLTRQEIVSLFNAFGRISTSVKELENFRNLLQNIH
As to the kind of experiment: Surface plasma resonance (Biacore) binding. As to conditions: SPR. As for the experimental part:
Surface plasma resonance (SPR) was utilized as an orthogonal assay to confirm direct binding between T151742 and ERO1α. For the SPR assay, recombinant ERO1α was crosslinked to a C5 chip and varying concentrations of ligand T151742 were evaluated for detection of changes in refractive index, due to change in mass on the chip when ligand is bound to the protein. […] The relatively high Kd value is in part due to the fast off-rate.
Cell Lines: PC-9 cell line used was obtained from Sigma Aldrich and grown in RPMI 1640 medium with 10% fetal bovine serum and 1% penicillin/streptomycin. HCC4006, U266, MM1.s, and Beas-2B cell lines were obtained from ATCC and cultured in either RPMI 1640 or DMEM with 10% fetal bovine serum and 1% penicillin/streptomycin. […] Plate was then read on the BioTek Cytation 5 at 530/590 nm. […] Plate was then read at 570 nm. Treated wells were all compared to DMSO control wells to calculate percent growth inhibition and the IC50 was calculated using GraphPad (log(inhibitor) vs growth inhibition). […] Images were then quantified using ImageJ. […] Cells were aliquoted at 1 million cells per PCR tube in PBS and heated in Bio-Rad T100 thermal cycler at indicated temperatures (RT, 46° C., 48° C., 50° C., 52° C., 54° C., 56°, 58° C., and 60° C.) for 3 minutes and aggregation temperature was determined by western blot analysis. […]

As to `CN(C)c1ccc(/C=C2\Oc3cc(O)ccc3C2=O)cc1` [Compound T151742], the off-rate result is given as “fast off-rate”.

The values above are taken from patent publication US20250064773A1, “TARGETING ERO1 ALPHA WITH AURONE DERIVATIVES” (West Virginia University Board of Governors on behalf of …, priority 2021, published 2025).
